Assay results from patent US11066421B1, “Synthetic cinchona alkaloids against cancer” (Ares Pharmaceuticals, LLC, priority 2021, dated 2021).

What was measured:
[1] = test system: leukemia-initiating ALL xenograft cells; experiment: Leukemia-initiating ALL xenograft cells treated in vitro and reinjected into NOD/SCID mice; format: in vivo, human; details: for spleen leukemia burden (nucleated spleen cell count) / spleen size (mean±SE): NOD/SCID mice sacrificed at 85 days
Protocol: Patient derived xenograft mouse models have predictive value for clinical responses (Xu C, Li X, Liu P, Li M and Luo F: Patient-derived xenograft mouse models: A high fidelity tool for individualized medicine (Review). Oncol Lett 17: 3-10, 2019). Xenograft clones isolated from spleens of NOD/SCID mice that developed overt leukemia after inoculation with primary leukemia cells from a B-lineage ALL patient were treated for 24 hours at 37° C. with one of two concentrations of AP-5 (1 μM or 3 μM in phosphate buffered saline [PBS] with 2% DMSO) or vehicle (PBS with 2% DMSO) and then reinjected into NOD/SCID mice (Control group: 9 mice; AP-5 groups: 8 mice per concentration level). Mice were monitored for signs of leukemia, and all mice in a given experiment were sacrificed when any mouse developed morbidity. The animal research in mice was conducted according to approved local IACUC protocols. All animal care procedures conformed to the Guide for the Care and Use of Laboratory Animals (National Research Council, National Academy Press, Washington D.C., USA. Revised 1996). Leukemia cells isolated from deidentified patient specimens were used in the described experiments.
Eight of the 9 control mice challenged with vehicle-treated xenograft cells developed leukemia between 81 and 85 days. All remaining mice were also sacrificed at 85 days. The spleen size and spleen leukemia burden were compared using previously published procedures (F. M. Uckun et al., 2015, J Clin Invest. 125:1006-18). […] The nucleated spleen cell count in these leukemic mice ranged from 192×10^6 to 940×10^6 (median: 576×10^6). The mean±SE values for all 9 control mice was 3.2±0.2 cm for the spleen size and 536.39±94.45×10^6 cells for the spleen leukemia burden (FIG. 4). By comparison, the spleens of mice inoculated with xenograft cells treated with AP-5 at a concentration of 1 μM (mean±SE=1.5±0.1 cm) (P=0.0011) or 3 μM (mean±SE=1.5±0.0 cm) (P=0.0018) were much smaller and contained substantially fewer cells (1 μM group: 7.95±1.11×10^6 cells/P=0.0104; 3 μM group: 5.84±1.07×10^6 cells/P=0.00002). […] FIG. 4 illustrates that AP-5 abrogates the ability of leukemia-initiating ALL xenograft cells to cause leukemia in NOD/SCID mice. The depicted Whisker plots in FIG. 4 represent the median and values (Min to Max. all data points are shown) for spleen size (A), and spleen leukemia burden (B). Kruskall Wallis and Dunn's multiple comparisons test were used for comparing the results among different groups (p<0.05). Statistical significance between groups is shown by the depicted p-values.

[2] = test system: mammary tumors of MMTV/neu transgenic mice; experiment: MMTV/neu transgenic mouse model of HER2+ breast cancer; format: in vivo; details: 9-week observation; AP-8 2 mg/kg i.p. twice daily; paclitaxel 6.7 mg/kg; gemcitabine 33.7 mg/kg
From the text: The predictive value of genetically engineered mouse (GEM) models to predict the clinical effectiveness of anti-cancer drugs is well established (Richmond A, Su Y. Mouse xenograft models vs GEM models for human cancer therapeutics. Dis Model Mech. 2008; 1(2-3):78-82. doi:10.1241-2/dmm.0.000976). We used the transgenic mouse model of HER2+ chemotherapy-resistant breast cancer to examine the in vivo anti-cancer activity of AP-8. Overexpression of the wild type Neu in the mammary glands of transgenic mice induces metastatic breast cancer. Accordingly, in the MMTV/Neu transgenic strain, the wild-type neu is overexpressed in the mammary gland under the control of the MMTV long terminal repeat. This animal model has been used to analyze the efficacy of new therapeutic approaches to prevent or treat Her2/neu overexpressing malignancies (Uckun, Dibirdik). MMTV/Neu transgenic mice [FVB/N-TgN(MMTV/neu)202MUL; Jackson Laboratory, Bar Harbor, Me.] were bred to produce multiple litters in a controlled SPF environment (12 h light/12 h-dark photoperiod, 22±1° C., 60±10% relative humidity). All mice were housed in microisolator cages (Lab Products, Inc., Maywood, N.Y., USA) containing autoclaved bedding in a controlled specific pathogen-free (SPF) environment (12 h light/12 h-dark photoperiod, 22±1° C., 60±10% relative humidity). Animal studies were approved by the institutional Animal Care and Use Committee of Drug Discovery Enterprises and all animal care procedures conformed to the Guide for the Care and Use of Laboratory Animals of the National Research Council. The genotype of mice was confirmed by multiplex polymerase chain reaction (PCR) tests as previously reported (F. M. Uckun et al., 2007, Bioorganic Med. Chem. 15:800-14; I. Dibirdik et al., 2010, J Nanomed and Nanotechnol. 1:001-4).
Neu transgenic mice carrying one or more tumors were randomly placed in the study. For the evaluation of tumor kinetics, tumor-bearing mice were randomly assigned to either vehicle control or treatment groups. Tumor growth was determined by the measurement of tumors with a caliper in three dimensions three days a week and expressed as tumor volume in cubic millimeters (mm^3). Tumor volumes were calculated using the formula for the volume of a prolate spheroid, V=4/3×3.14×length/2×width/2×depth/2. Due to the large heterogeneity in transgenic tumor volumes on day 0, tumor growth for each mouse was normalized to the starting volume for that particular tumor. Therefore, each mouse also served as its own control, and the tumor growth curves were generated to show the rate of change in tumor volumes.
AP-8 (50 μg˜2 mg/kg in 50 μL DMSO as vehicle) (10 mice, 12 target mammary tumors, Initial average tumor volume=787±125 mm^3) was administered by twice daily intraperitoneal injections on 5 consecutive days per week. Paclitaxel (10 mice, 13 target mammary tumors, Initial average tumor volume=554±79 mm^3) was administered intraperitoneally on days 1, 3, and 5 of each week at a dose level of 6.7 mg/kg ([…]). Gemcitabine (13 mice, 18 target mammary tumors, Initial average tumor volume=549±60 mm^3) was administered intraperitoneally on days 1 and 8 every 4 weeks at a dose level of 33.7 mg/kg (˜1 g/m^2). Control mice (8 mice, 10 mammary tumors, Initial average tumor volume=293±61 mm^3) were treated by twice daily intraperitoneal injections of vehicle alone (50 μL DMSO) on 5 consecutive days per week. […]

[3] = xenograft cells treated 24 h with 1 μM
[4] = xenograft cells treated 24 h with 3 μM

| Molecule | ability of xenograft cells to initiate leukemia in NOD/SCID mice ([1]; low micromolar concentration (1 or 3 μM)) | spleen leukemia burden (nucleated spleen cell count) [1, 3] | spleen size (mean±SE) [1, 3] [cm] | spleen leukemia burden (nucleated spleen cell count) [1, 4] | spleen size (mean±SE) [1, 4] [cm] | tumor shrinkage and tumor growth [2] |
| --- | --- | --- | --- | --- | --- | --- |
| 2,4,6-Tri (9-O-dihydrocinchoninyl)pyrimidine [AP-5] | capable of abrogating the ability of the putative leukemic stem cell subpopulation of BPL xenograft cells to initiate leukemia | 7.95±1.11 ×10^6 cells | 1.5±0.1 | 5.84±1.07 ×10^6 cells | 1.5±0.0 | – |
| CCC1CN2CCC1CC2C(Oc1cc(OC(c2ccnc3ccc(OC)cc23)C2CC3CCN2CC3CC)nc(OC(c2ccnc3ccc(OC)cc23)C2CC3CCN2CC3CC)n1)c1ccnc2ccc(OC)cc12 (stereo not drawn) [AP-8, 2,4,6-Tri (9-O-dihydroquinidinyl)pyrimidine] | – | – | – | – | – | caused shrinkage of the tumor, completely arrested the tumor growth for 4 weeks, and markedly delayed the tumor progression between 4 weeks and 9 weeks |
